Assay results from patent US20220142158A1, “ARTHROPOD CONTROL COMPOSITIONS” (FIRMENICH SA, priority 2019, published 2022).

Tested on: Aedes aegypti
Experiment: Warm Body Assay, in-vitro repulsion of mosquitoes
Details: 100% at concentration 0
Protocol: The arthropod controlling effect according to the present invention is determined on mosquitoes using an adapted Warm Body assay as defined in Kröber T, Kessler S, Frei J, Bourquin M, Guerin P M. An in vitro assay for testing mosquito controlling compounds employing a warm body and carbon dioxide as a behavioral activator. J Am Mosq Control Assoc. 2010; 26:381-386.
The controlling effect according to the present invention is determined by testing the Warm Body assay against the yellow fever mosquito, Aedes aegypti Rockefeller strain. […] Observations of controlling efficacy were made on host-seeking females of uniform age, 5 to 10 days old selected as mentioned in the publication mentioned hereinabove. Tested hungry females had access to 10% sugar solution but were not blood-fed.
(§1) The published protocol has been adapted in not manually counting the landing mosquitoes but automatically using an automatic counting software, the switch from Anopheles gambiae to A. aegypti led to a decrease of mosquitoes' number placed in the tested cage due to the size difference (i.e. 30 mosquitoes instead of 50) and to an increase of lighting as A. aegypti is a diurnal mosquitoes (i.e. 150 lux instead of 4 lux).
The controlling efficacy in vitro was by an adapted Warm Body assay as defined in Kröber T, Kessler S, Frei J, Bourquin M, Guerin P M. An in vitro assay for testing mosquito controlling compounds employing a warm body and carbon dioxide as a behavioral activator. J Am Mosq Control Assoc. 2010; 26:381-386. The controlling effect according to the present invention is determined by testing the Warm Body assay against the yellow fever mosquito, A. aegypti Rockefeller strain.
as §1, with “Observations of controlling efficacy were made on host-seeking females of uniform age, 5 to 10 days old selected as mentioned in the publication mentioned hereinabove. Tested hungry females had access to 10% sugar solution but were not blood-fed. The” for “The”
In this in-vitro assay the number of A. aegypti landing on a warm body treated with the tested stimuli was measured in order to assess the repellency effect. […]

| Compound | Mean ± SD of normalized repulsion of mosquitoes Aedes aegypti (concentration 0.016 mg/mL) | Mean ± SD of normalized repulsion of mosquitoes Aedes aegypti (concentration 0.08 mg/mL) | Mean ± SD of normalized repulsion of mosquitoes Aedes aegypti (concentration 0.4 mg/mL) | Mean ± SD of normalized repulsion of mosquitoes Aedes aegypti (concentration 2 mg/mL) | Mean ± SD of normalized repulsion of mosquitoes Aedes aegypti (concentration 10 mg/mL) |
| --- | --- | --- | --- | --- | --- |
| CCN(CC)C(=O)c1cccc(C)c1 [DEET, N,N-diethyl-3-methylbenzamide] | 90% ± 9% | 42% ± 7% | 11% ± 5% | 2% ± 1% | 3% ± 3% |
| CCCCN(CCC(=O)OCC)C(C)=O [IR3535, ethyl butylacetylaminopropionate] | 103% ± 20% | 108% ± 14% | 31% ± 5% | 22% ± 9% | 11% ± 2% |
